Values joined by “and” are separate entries in the source; they are usually repeats but may differ in a detail not shown here. Equal values may be shown once.
Tests used:
[1] = Urine and faeces analysis by ICP-OES (Pt element); type: in vivo, mice; parameters: Pt in urine / Pt in feces: unit not given beside the values
Procedure: page 47: determined using ELISA kits according to manufacturer 's protocol. Determination of the blood circulation half-life. […], or CDDP (at a dose of 2.25 mg kg-1 Pt) was i.v. injected into healthy female BALB/c nude mice (6-8 weeks old). […] The collected blood was digested with concentrated HNO3 (65-70%, 2 mL) and HCl (36~38%, 1 mL) at 90 °C overnight. The residues were then diluted with 5 mL 2% HNO3 and 5% HCl solution, and the concentrations of Pt element were determined by ICP-OES, which were further applied to calculate the contents of Pt element in the blood. The plot of the percentage of Pt element remained in the blood versus injection time to yield the pharmacokinetic time. Urine and Faeces analysis. […] Urine and faeces were collected at 2 (for 0-2 h), 4 (for 2-4 h), 8 (for 4- 8 h) and 12 h (for […]), which were diluted in methanol and centrifuged at 3,600 × g for 10 min, followed by filtering via a 0.22 μm syringe filter. The solutions were analyzed by HPLC (660 nm detection) to characterize all the mCy-containing compounds. Using the established standard curves for […] Cy-COOH, the amount of each compound in the urine and faeces could be calculated, which were further applied to determine the percentage of them in the urine and faeces. The data were summarized in Supplementary Tables 5-8. […] Urine and faeces were collected and weighed. The urine and faeces were digested with concentrated HNO3 (65~70%) and HCl (36~38%) at 90 °C for 24 h. The solution was diluted to 5 mL 2% HNO3 and 5% HCl solution, and the concentration of Pt element was measured by ICP-OES, which was further applied to calculate the percentage of Pt in corresponding urine and faeces. The data were summarized in Supplementary Tables 9 and 10. 47

[2] = Urine and faeces analysis by ICP-OES (Pt element); type: in vivo, mice; parameters: Pt in urine / Pt in feces: unit not given beside the values; remark: listed apart in the source
[3] = tested on: orthotopic HepG2/Luc liver tumors; experiment: Chemotherapy of orthotopic liver tumors (BL imaging, ex vivo BL and FL imaging); type: in vivo, mice;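 note: bioluminescence quantified by ROI over liver region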
[4] = General design summary of signals and cytotoxicity (Fig. 1a)
Text: P-CyPt is designed to (1) offer activatable near-infrared (NIR) FL and PA signals for bimodality imaging through ALP-mediated in situ self-assembly and (2) release CDDP for on-demand therapy via GSH-triggered disassembly (Fig. 1a). […] After systemic administration, P-CyPt as a small molecule can extravasate and penetrate deeply into tumor tissues (Fig. 1b). In tumor tissues that are membrane-bound ALP positive, rapid dephosphorylation of P-CyPt by the membrane-bound ALP generates CyPt, switching on NIR FL (λem = 710 nm) and PA signals (λ = 700 nm); moreover, CyPt with increased hydrophobicity is susceptible to self-assembly into Pt(IV) nanoparticles (Pt^IVNPs), which turns on another PA signal (λ = 750 nm) resulting from the aggregation-caused bathochromic shift. The on-site formed Pt^IVNPs can anchor on the cell membranes, which attenuate diffusion, prolong retention, and enhance translocation into cells[32],[33]. Within tumor cells, the abundant endogenous GSH can reduce Pt(IV) into Pt(II), producing negatively charged Cy-COOH that promotes NPs disassembly and accelerates release of CDDP intracellularly. This process dramatically raises intracellular CDDP’s concentration while depletes GSH’s level to effectively kill tumor cells. Moreover, the disassembly of Pt^IVNPs into Cy-COOH further increases NIR FL (called as “ON-ON”) as the aggregation-caused quenching (ACQ) effect is eliminated; however, the PA signal at 750 nm is turned off but the PA signal at 700 nm is kept at “ON” state. The sequential switches in NIR FL and PA bimodal imaging signals can allow P-CyPt to reliably monitor the ALP-triggered in situ self-assembly and GSH-driven disassembly process in vivo, facilitating to guide precise chemotherapy of tumors.

[5] = Side toxicity in s.c. HeLa tumor-bearing mice (body weight, BUN, CRE, H&E)
[6] = Urine and faeces analysis by HPLC (mCy-containing compounds); type: in vivo; settings: Time period 8-12 h; individual mice
[7] = i.v. 2.25 mg kg-1 Pt, 0-2 h, ICP-OES

[NH2][Pt]([NH2])([Cl])[Cl] [CDDP, cisplatin]
Percentage of Pt element excreted to the faeces ([1]; 2-4 h): 2.60 ± 0.45%
Percentage of Pt element excreted to the urine ([1]; 2-4 h): 10.94 ± 1.14%
Percentage of Pt element excreted to the faeces ([1]; 4-8 h): 4.55 ± 0.60%
Percentage of Pt element excreted to the urine ([1]; 4-8 h): 5.45 ± 0.94%
Percentage of Pt element excreted to the urine ([1]; 8-12 h): 3.48 ± 0.58%
Pt in urine ([1]; Fig.6g, 0-2 h, mean of 3 mice): 15.456
Pt in urine ([1]; Fig.6g, 0-2 h, single mice): 14.877 and 18.189 and 13.302
Pt in urine ([1]; Fig.6g, 2-4 h, mean of 3 mice): 10.936
Pt in urine ([1]; Fig.6g, 2-4 h, single mice): 10.576 and 12.209 and 10.023
Pt in urine ([1]; Fig.6g, 4-8 h, mean of 3 mice): 5.452
Pt in urine ([1]; Fig.6g, 4-8 h, single mice): 5.332 and 6.452 and 4.572
Pt in urine ([1]; Fig.6g, 8-12 h, mean of 3 mice): 3.482
Pt in feces ([1]; Fig.6h, 0-2 h, mean of 3 mice): 0.193
Pt in feces ([1]; Fig.6h, 0-2 h, single mice): 0.190 and 0.242 and 0.148
Pt in feces ([1]; Fig.6h, 2-4 h, mean of 3 mice): 2.596
Pt in feces ([1]; Fig.6h, 2-4 h, single mice): 2.468 and 3.099 and 2.222
Pt in feces ([1]; Fig.6h, 4-8 h, mean of 3 mice): 4.548
Pt in feces ([1]; Fig.6h, 4-8 h, single mice): 4.452 and 5.187 and 4.005
Pt in feces ([1]; Fig.6h, 8-12 h, mean of 3 mice): 2.704
Pt accumulatively cleared (urine + faeces) ([1]; during 12 h): ~ 45.3%
Pt in feces ([1]; feces collected 0-2 h, mouse-1): 0.190
Pt in feces ([1]; feces collected 0-2 h, mouse-2): 0.242
Pt in feces ([1]; feces collected 0-2 h, mouse-3): 0.148
Pt in feces ([1]; feces collected 2-4 h, mouse-1): 2.468
Pt in feces ([1]; feces collected 2-4 h, mouse-2): 3.099
Pt in feces ([1]; feces collected 2-4 h, mouse-3): 2.222
Pt in feces ([1]; feces collected 4-8 h, mouse-1): 4.452
Pt in feces ([1]; feces collected 4-8 h, mouse-2): 5.187
Pt in feces ([1]; feces collected 4-8 h, mouse-3): 4.005
Pt in feces ([1]; feces collected 8-12 h, mouse-1): 2.646
Pt in feces ([1]; feces collected 8-12 h, mouse-3): 2.294
Percentage of Pt element excreted to the faeces [1, 7]: 0.19 ± 0.046%
Percentage of Pt element excreted to the urine [1, 7]: 15.46 ± 2.49%
Pt in urine, mean ([1]; urine collected 0-2 h, mean of 3 mice): 15.456
Pt in urine ([1]; urine collected 0-2 h, mouse-1): 14.877
Pt in urine ([1]; urine collected 0-2 h, mouse-2): 18.189
Pt in urine ([1]; urine collected 0-2 h, mouse-3): 13.302
Pt in urine, mean ([1]; urine collected 2-4 h, mean of 3 mice): 10.936
Pt in urine ([1]; urine collected 2-4 h, mouse-1): 10.576
Pt in urine ([1]; urine collected 2-4 h, mouse-2): 12.209
Pt in urine ([1]; urine collected 2-4 h, mouse-3): 10.023
Pt in urine, mean ([1]; urine collected 4-8 h, mean of 3 mice): 5.452
Pt in urine ([1]; urine collected 4-8 h, mouse-1): 5.332
Pt in urine ([1]; urine collected 4-8 h, mouse-2): 6.452
Pt in urine ([1]; urine collected 4-8 h, mouse-3): 4.572
Pt in urine, mean ([1]; urine collected 8-12 h, mean of 3 mice): 3.482
Pt in urine ([1]; urine collected 8-12 h, mouse-1): 3.482
Pt in urine ([1]; urine collected 8-12 h, mouse-2): 4.062
Pt in urine ([1]; urine collected 8-12 h, mouse-3): 2.903
Percentage of Pt element excreted to the faeces ([2]; 8-12 h): 2.70 ± 0.44%
Pt in urine ([2]; Fig.6g, 8-12 h, single mice): 3.482 and 4.062 and 2.903
Pt in feces ([2]; Fig.6h, 8-12 h, single mice): 2.646 and 3.172 and 2.294
Pt in feces ([2]; feces collected 8-12 h, mouse-2): 3.172
tumor BL intensity of liver ([3]; 2.25 mg kg^−1 Pt i.v. day 0, 3, 6, 9, 12, day 3): 88767.5
tumor BL intensity of liver ([3]; day 6): 201697.5
tumor BL intensity of liver ([3]; day 9): 375850.0
tumor BL intensity of liver ([3]; day 12): 589375.0
Cytotoxicity [4]: High
body weight during treatment ([5]; 2.25 mg kg^−1 Pt i.v. x5, 21 days): obviously decreased
increase of blood urea nitrogen (BUN) level ([5]; day 21): ~ 1.6 fold
increase of creatinine (CRE) level ([5]; day 21): ~ 1.4 fold

CC1(C)C(/C=C/C2=C3Oc4cc(O)c(Cl)cc4C=C3CCC2)=[N+](CCCNC(=O)[C@@H](Cc2ccccc2)NC(=O)[C@@H](Cc2ccccc2)NC(=O)CCC(=O)[O][Pt]([NH2])([NH2])([OH])([Cl])[Cl])c2ccccc21 [CyPt]
Percentage of Pt element excreted to the faeces ([1]; 2-4 h): 16.51 ± 1.34%
Percentage of Pt element excreted to the faeces ([1]; 4-8 h): 21.52 ± 1.73%
Percentage of Pt element excreted to the faeces [1, 7]: 0.63 ± 0.21%
Percentage of Pt element excreted to the faeces ([2]; 8-12 h): 3.69 ± 0.77%
Cytotoxicity [4]: Low
FL at 710 nm [4]: High
PA at 700 nm [4]: High
PA at 750 nm [4]: Low
Compound found in excreta (%), Supplementary Table S5 [6]: 0%
Compound found in excreta (%), Supplementary Table S6 [6]: 0.6127% and 0.8857% and 0.7667%
Compound found in excreta (%), Supplementary Table S7 [6]: 0.79% and 1.63% and 1.075%

— PMC9925730, “Controlled sequential in situ self-assembly and disassembly of a fluorogenic cisplatin prodrug for cancer theranostics” (Nature Communications, 2023)
